The text below walks through data of US20060142591A1, “DAPH analogs and inhibition of protein aggregation” (priority 2004, published 2006).

In one assay the target is Aβ42Total (Homo sapiens, UniProt P05067). Nature of the assay: Reversal of aggregated Aβ42Total fibrils, ThT assay. It counts as biochemical. The conditions noted are these: depends on the concentration of compound. On the procedure: Aβ42Total is unfractionated synthetic Aβ42 that was dissolved in water at pH 8-9 by using NH3 or at pH 10-11 by using dilute NaOH and stored at −40° C. Experimental samples were prepared by diluting the stock solution of Aβ42 to 10 μM (unless noted otherwise) in Tyrode's solution 2 mM Ca (150 mM NaCl/3 mM KCl/10 mM Hepes, pH 7.4/2 mM CaCl2/10 mM D-glucose, pH 7.4/0.02% Na azide). The synthetic Aβ42 was dissolved in water at a pH of ˜8 and then stored at −20° C. until diluted into Tyrode's Solution/2 mM Ca (pH 7.4). This preparation is “Aβ42Total”. To aggregate for use in experiments, it was preincubated for 24 or 48 h at 37° C. without stirring. To measure β-sheet formation, ThT was added to protein or peptide reaction mixtures, such as Aβ samples or NM aggregation, NM disaggregation or NM seed reaction mixtures following incubation and fluorescent measurements were read according to standard procedures. […] ThT fluorescence is measured at room temperature (e.g., in a Fluoroskan II at […] or a FLUOstar Optima plate-reader (BMG Lab Technologies, Durham, N.C.) at Ex=440 nm and Em=480 nm). The ThT fluorescence spectrum is measured in an spectrofluorimeter (e.g., f4500, Hitachi, Tokyo) at Ex=435 nm and Em=450-550 nm. Fibrils of aggregated Aβ42Total give a strong ThT fluorescence signal, indicating high β-sheet content.
Chain of Aβ42Total (P05067 672-713 limits assumed): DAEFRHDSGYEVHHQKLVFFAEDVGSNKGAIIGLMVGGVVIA

Assay [1] concerns RML strain of mouse scrapie. In kind it is in vivo, CD1 mice.
A further assay concerns the target Aβ fibrils (Homo sapiens, UniProt P05067). The assay is described as follows: Reversal of preformed Aβ fibrils, observed by EM. In kind it is biochemical. The settings on record: Aβ aggregated 24 h at pH 7.4, then another 24 h with equimolar compound; vehicle 1% DMSO. Here is the method:
Aβ42Total is unfractionated synthetic Aβ42 that was dissolved in water at pH 8-9 by using NH3 or at pH 10-11 by using dilute NaOH and stored at −40° C. Experimental samples were prepared by diluting the stock solution of Aβ42 to 10 μM (unless noted otherwise) in Tyrode's solution 2 mM Ca (150 mM NaCl/3 mM KCl/10 mM Hepes, pH 7.4/2 mM CaCl2/10 mM D-glucose, pH 7.4/0.02% Na azide). The synthetic Aβ42 was dissolved in water at a pH of ˜8 and then stored at −20° C. until diluted into Tyrode's Solution/2 mM Ca (pH 7.4). This preparation is “Aβ42Total”. To aggregate for use in experiments, it was preincubated for 24 or 48 h at 37° C. without stirring. Negative-staining EM was used to visualize the kinetics and morphology of Aβ42 fibrillization over time, with and without the presence of DAPH analogs. Samples of 10 μM seedless Aβ42 (Aβ4230k) were incubated for a predetermined amount of time at 37° C. and vigorously vortex mixed immediately before and after incubation. Very small volumes, typically 5 μl, of each sample were absorbed for 2-4 min onto glow-discharged, carbon-coated, Formvar-filmed 400 mesh copper grids and gently wicked away with filter paper. […] Measurements were analyzed, and width-distribution histograms were produced by using EXCEL 98 (Microsoft). […]

Another assay concerns the target Aβ4230k (Homo sapiens, UniProt P05067). Nature of the assay: Coincubation with seedless Aβ42 (fibrillization), observed by EM. It counts as biochemical.
The target in assay [2] is T1, Sup35 NM protein (Saccharomyces cerevisiae, UniProt P05453).
T1 construct: Soluble Sup35 NM protein (“NM”) was tested for aggregation
T1 sequence (P05453 1-253 limits assumed): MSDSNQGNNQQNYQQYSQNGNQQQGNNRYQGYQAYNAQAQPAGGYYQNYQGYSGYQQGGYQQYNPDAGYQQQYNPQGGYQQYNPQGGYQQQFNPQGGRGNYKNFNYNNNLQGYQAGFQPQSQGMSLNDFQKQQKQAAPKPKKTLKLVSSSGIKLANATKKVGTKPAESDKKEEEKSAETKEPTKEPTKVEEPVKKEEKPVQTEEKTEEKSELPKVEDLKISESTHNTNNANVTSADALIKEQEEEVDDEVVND
Nature of the assay: NM aggregation assay. It counts as biochemical, yeast. The conditions noted are these: soluble NM 5 μM. Here is the method:
Soluble Sup35 NM protein (“NM”) was tested for aggregation in the presence of DAPH, DAPH analogs or vehicle control (DMSO). NM protein (5 μM) was aggregated in the presence of DAPH (0-20 μM), DAPH analogs (0-20 μM) or DMSO (0-2% v/v). The assay mixture was incubated for 24 hr at 25° C., then tested for Congo Red binding to determine the extent of NM fiber formation.
(§1) Congo red was added to NM aggregation, NM disaggregation or NM seed reaction mixtures following incubation to a final concentration of 10 μM. After 30 min at 25° C., absorbances at 320, 477, and 540 nm were determined. Congo red dye binding was measured by using the equation [(OD540/25,295)−(OD477/46,306)] (Klunk et al., J. Histochem. Cytochem. 37:1273-1279, 1989) as described by Schirmer and Lindquist (Proc. Natl. Acad. Sci USA 94:13932-13937, 1997).
Soluble Sup35 NM (“NM”) at 5 μM was tested for aggregation in the presence of DAPH, DAPH analogs or vehicle control (DMSO). Aggregation of NM was inhibited by up to 100% (see FIG. 1). Inhibition of NM aggregation was concentration dependent.

A further assay concerns the target T2, NM protein fibers (Saccharomyces cerevisiae, UniProt P05453).
T2 construct: Soluble Sup35 NM protein (“NM”) was tested for aggregation
T2 sequence (P05453 1-253 limits assumed): T1 sequence (P05453 1-253 limits assumed)
The assay is described as follows: NM disaggregation assay. In kind it is biochemical, yeast. On the procedure: For determining disaggregation of preformed aggregates, NM protein fibers (equivalent to 5 μM monomer) were incubated with DAPH (0-20 μM), DAPH analogs (0-20 μM) or DMSO (0-2% v/v). The assay mixture was incubated for 24 hr at 25° C., then tested for Congo Red or Thioflavin T binding to determine the extent of NM fibers remaining.
as §1
To measure β-sheet formation, ThT was added to protein or peptide reaction mixtures, such as Aβ samples or NM aggregation, NM disaggregation or NM seed reaction mixtures following incubation and fluorescent measurements were read according to standard procedures.
For measurement, each sample preferably is split into multiple wells of a 96-well black-bottom plate (e.g., catalog no. 35-3943, VWR International, Westchester, Pa.). ThT fluorescence is measured at room temperature (e.g., in a Fluoroskan II at […] or a FLUOstar Optima plate-reader (BMG Lab Technologies, Durham, N.C.) at Ex=440 nm and Em=480 nm). The ThT fluorescence spectrum is measured in an spectrofluorimeter (e.g., f4500, Hitachi, Tokyo) at Ex=435 nm and Em=450-550 nm.

The target in assay [3] is T1, Sup35 NM protein. Nature of the assay: NM seed assay. The settings on record: disaggregated monomers used as seed at 2% or 5%. In kind it is biochemical, yeast. On the procedure:
Monomers of NM disaggregated by treatment with DAPH and DAPH analogs (see below) were tested for the ability to “seed” new NM fibers. Disaggregated monomers were used at 2% or 5% as described above for the NM aggregation assay.
as §1

A further assay concerns the target amyloid β (Aβ) fibers (Homo sapiens, UniProt P05067). The settings on record: Blanchard et al., PNAS 101:14326-14332, 2004; cited from earlier work.
The mark [4] stands for this setting: 1% brain homogenate incubated 48 hours with compound, lower doses of infectivity, log rank test.

Chain of Aβ4230k (P05067 672-713 limits assumed): as the sequence (P05067 672-713 limits assumed) above
Chain of amyloid β (Aβ) fibers (P05067 672-713 limits assumed): as the sequence (P05067 672-713 limits assumed) above
Chain of Aβ fibrils (P05067 672-713 limits assumed): as the sequence (P05067 672-713 limits assumed) above

As to `COc1ccc(Nc2cc3c(cc2Nc2ccc(OC)cc2)C(=O)NC3=O)cc1` [DAPH-12, 5,6-Bis-(4-methoxy-phenylamino)-isoindole-1,3-dione], on Aβ42Total, the “time for reversal of the fibrils, as detected by the ThT assay” value was “takes only very few minutes”. Moreover, in assay [1] (1% brain homogenate incubated 48 hours with compound, lower doses of infectivity, CD1 mice n=4 per group, log rank test), the “median survival longer than DMSO controls” value was “at least 60 days”. Besides, the “effect on survival / prion titers (in words)” value in assay [1] (setting [4]) is recorded as “reduction in prion titers”.

On to `O=C1NC(=O)c2cc(Nc3ccccc3)c(Nc3ccccc3)cc21` [DAPH, 4,5-dianilinophthalimide], for which the “reversal of aggregation of Aβ fibrils as determined by EM” value on Aβ fibrils is “reversed the aggregation of the Aβ fibrils”. Further, the “time for reversal of the fibrils, as detected by the ThT assay” value at Aβ42Total is on record as “takes only very few minutes”. Further, at Aβ4230k (24 h incubation), the “elimination of higher-order structure, EM studies” value was “nearly complete elimination of higher-order structure”. Also, the “elimination of the usual fibrils, as observed by EM” value on Aβ4230k (coincubation of Aβ4230k with equimolar compound (10:10 μM), 1% DMSO) is “almost complete elimination of the usual fibrils”. For the same molecule, the “effect on NM fiber assembly / NM aggregation (in words)” value at Sup35 NM protein [2] is listed as “antagonizes NM fiber assembly”. Also, the “inhibition of NM aggregation” value at Sup35 NM protein [2] (compound 0-20 μM, 24 hr at 25° C., Congo Red binding, FIG. 1, concentration dependent) was “up to 100%”. For the same molecule, the “disaggregation of preformed NM fibers as compared to the DMSO control” value at NM protein fibers (preformed NM aggregates, FIGS. 2 and 3) was “effective in disaggregation of preformed fibers”. Moreover, the “dissolution of NM fibers as measured by Congo Red binding” value at NM protein fibers (preformed NM fibers, FIG. 2) is recorded as “partially dissolve NM fibers”. For the same molecule, at NM protein fibers (preformed NM fibers, FIG. 3), the “dissolution of NM fibers as measured by ThT fluorescence” value is given as “partially dissolve NM fibers”. For the same molecule, the “ability of NM protein to reform NM fibers following disaggregation” value at Sup35 NM protein [3] is given as “essentially unable to reform NM fibers”. In addition, the “effect on survival / prion titers (in words)” value in assay [1] (setting [4]) is recorded as “did not significantly alter survival”. The “effect of treatment at high doses of infectivity” value in assay [1] (high doses of infectivity) is “not observed”. Further, on amyloid β (Aβ) fibers, the “disaggregation of amyloid β (Aβ) fibers” value is “can disaggregate amyloid β (Aβ) fibers”.
